Article PMC7738871, “Covalent modification of Keap1 at Cys77 and Cys434 by pubescenoside a suppresses oxidative stress-induced NLRP3 inflammasome activation in myocardial ischemia-reperfusion injury” (Theranostics, 2021)
Entries after “also recorded” stand apart in the source; their conditions may differ.

Tests used:
[1] = test system: Nrf2; assay: Nrf2 expression in cardiomyocytes under OGD/R; assay type: cell-based; details: cardiomyocytes under OGD/R condition
Procedure: Total protein was isolated from H9c2 cells, primary mouse cardiomyocytes, RAW264.7 cells and heart tissue using 1X RIPA buffer containing phosphatase and proteinase inhibitors at 4 °C. After measurement of the concentration, the cell lysates were separated by sodium dodecyl sulphate polyacrylamide gel electrophoresis (SDS-PAGE) and transferred to polyvinylidene fluoride (PVDF) membranes. The membranes were blocked in Tris-buffered saline-Tween 20 (TBST) buffer with 5% BSA for 1 h and incubated with primary antibodies (1:1000 dilution) overnight at 4 °C. After the membranes was washed by TBST buffer for three times, they were incubated with horseradish peroxidase (HRP)-conjugated secondary mouse or rabbit antibodies (1:3,000 dilution) at room temperature (RT) for 1.5 h and then detected by SuperEnhanced chemiluminescence (ECL) reaction reagents (GBCBIO Technologies Inc., Guangzhou, Guangdong, China). In brief, drop evenly the ECL working liquid onto the membrane at the ratio of 1 mL ECL working liquid and 10 cm^2 of membrane. After letting the membranes stand for 1-2 min, the bands of the respective proteins were detected with the exposure time of 10 ~60 s.

[2] = test system: T1, Keap1; assay: Pull-down with PBA-Sepharose 4B beads, cell lysate; assay type: binding; details: 4 °C, immunoblot, Sepharose 4B beads only as negative control
T1 construct: endogenous in cells; host or cells: RAW264.7
Procedure: PBA-Sepharose 4B beads were created by dissolving PBA in coupling buffer (100 mM NaHCO3, pH 8.3, 0.5 M NaCl). After washing with 1 mM HCl medium, Sepharose 4B beads were mixed with PBA coupling buffer and slowly rotated overnight at 4 °C. Excess PBA was washed away with coupling buffer and any remaining active groups were blocked with 0.1 M Tris-HCl buffer (pH 8.0) for 2 h. The medium was then washed with 0.1 M acetate buffer (pH 4.0) containing 0.5 M NaCl followed by a wash with 0.1 M Tris-HCl (pH 8.0) that also contained 0.5 M NaCl. PBA-Sepharose 4B beads were ready for use in the pull-down assay. The RAW264.7 cellular supernatant fraction (600 µg) was incubated with either PBA-Sepharose 4B or Sepharose 4B as a negative control in reaction buffer (50 mM Tris-HCl, pH 7.5, 5 mM EDTA, 150 mM NaCl, 1 mM DTT, 0.01% NP-40, 2 µg/mL of BSA, 0.02 mM PMSF, 1 × protease inhibitor cocktail). After incubation with gentle rocking overnight at 4 °C, the beads were washed five times with wash buffer (50 mM Tris-HCl, pH 7.5, 5 mM EDTA, 150 mM NaCl, 1 mM DTT, 0.01% NP-40, 0.02 mM PMSF) and proteins bound to the beads were analyzed by immunoblotting assay with a Keap1 antibody.

[3] = test system: OGD/R-induced H9c2 cells; assay: OGD/R-induced injury, MTT viability, H9c2; assay type: cell-based, rat; details: H9c2, 10 and 30 μM, OGD 6 h, reperfusion 18 h
Procedure: For OGD/R treatment, H9c2 cells were washed twice with phosphate buffered saline (PBS). The medium was changed to glucose and serum free DMEM, and H9c2 cells were incubated in an incubator with 95% N2 and 5% CO2 at 37 °C. After 6 h, the medium was replaced with DMEM containing 10% FBS and 1% PS. Then H9c2 cells were returned to a normal incubator with 5% CO2 balanced with air at 37 °C for the indicated time.
(§1) Cell viability was determined by MTT assays. PBA was prepared to a stock solution dissolved in dimethyl sulfoxide (DMSO). RAW264.7, H9c2 cells, primary mouse cardiomyocytes were treated with different doses of PBA, and DMSO only as control for 48 h for the toxicity. In addition, H9c2 cells or primary mouse cardiomyocytes were treated with the indicated doses of PBA, diazoxide as positive control, DMSO only as control, then cultured with or without OGD/R treatment. At the end of the experiments, MTT was added into each well at the concentration of 0.5 mg/ml, and incubated at 37 °C for 4 h. After removal of the supernatant, 150 μL of DMSO was added to solubilize the formazan products. And the solution was measured at the absorbance of 490 nm by a spectrophotometer (Thermo Fisher Scientific, MA, USA). The results of the MTT assay in all groups were normalized to the control group with DMSO only treatment.

[4] = test system: T2, interaction between Keap1 and Nrf2; assay: Co-IP of Keap1 and Nrf2 in 293T cells; assay type: cell-based, human
T2 construct: expressed in transfected cells; host or cells: 293T
Procedure: Figure 6 PBA suppresses Keap1-mediated ubiquitination of Nrf2 by disrupting the interaction between Cul3 and Keap1. (A and B) PBA suppressed Nrf2 ubiquitination in a Keap1-Cys77 and C434-dependent manner. First, 293T cells were transfected with WT-Keap1 or C77S and C434S-Keap1, Myc-Nrf2, and Ub plasmids for 24 h and treated with 30 μM PBA. The cell lysates were immunoprecipitated using anti-Myc beads, and the ubiquitination level was evaluated using the anti-Ub antibody. (C and D) PBA induced the dissociation of the Nrf2-Keap1 complex. Then, 293T cells were cotransfected with WT-Keap1 and Flag-Nrf2 plasmids for 24 h and treated with 30 μM PBA for 12 h. The cell lysates were immunoprecipitated with the anti-Flag antibody, and the level of Nrf2 was assessed using the anti-Nrf2 antibody. (E and F) PBA disrupted the interaction between Cul3 and Keap1. The 293T cells were transfected with the WT-Keap1 or C77S-C434S-Keap1 plasmids for 24 h and treated with 30 μM PBA for 12 h. The cell lysates were immunoprecipitated with the anti-Flag antibody, and the level of Cul3 was measured using the anti-Cul3 antibody. #p < 0.05, ##p < 0.01, ###p < 0.001, the control vs DMSO; *p < 0.05,**p < 0.01, ***p < 0.001, PBA or tBHQ vs DMSO. […] Primary mouse cardiomyocytes were transfected with mouse WT-Keap1 or C77S and C434S-Keap1 mutant vectors. After 24 h, the cells were treated with the indicated doses of PBA and subjected to OGD conditions as described in the Method section for 3 h and under normal conditions for another 18 h. Cell viability was measured by MTT assays. #p < 0.05, ###p < 0.001, the control vs OGD/R; **p < 0.01, ***p < 0.001, OGD/R+PBA vs OGD/R.
To investigate the effect of PBA on the interaction of Keap1 and Nrf2, we transfected 293T cells with Flag-Keap1 and Myc-Nrf2 plasmids, and treated them with 30 μM PBA for 24 h. The protein expression of Nrf2 was measured by western blotting analysis followed by immunoprecipitation with Flag beads.

[5] = test system: RAW264.7 macrophages; assay: MTT cytotoxicity, RAW264.7; assay type: cell-based; details: RAW264.7, under 240 μM, 48 h
Procedure: as §1

[6] = test system: H9c2 cells; assay: MTT cytotoxicity, H9c2; assay type: cell-based, rat; details: under 240 μM, 48 h
Procedure: as §1

## C=C(COC(=O)C=Cc1ccc(O)c(O)c1)C(O)COC1OC(CO)C(O)C(O)C1O (stereo not shown) [PBA, pubescenoside A]
[1]
  Nrf2 expression: strongly induced
[2]
  binding of Keap1 to PBA-Sepharose 4B beads (pull-down): could bind
[3]
  protection against OGD/R induced injury (cell viability, MTT): protected
[4]; Cys77S and Cys434S-Keap1 mutant vectors
  Keap1-Nrf2 complex with mutant Keap1 (Co-IP): unable to block
[4]; WT-Keap1, 30 μM PBA
  interaction between Keap1 and Nrf2 (Co-IP): significantly disturbed; also recorded: disrupted
[5]
  cell toxicity (MTT): did not exhibit any cell toxicity
[6]
  cell toxicity (MTT): did not exhibit any cell toxicity
